From US7098219B2, “Inhibitors of cellular efflux pumps of microbes” (Wockhart Limited, priority 2000, dated 2006)

Assays:
[1] = tested on: Pseudomonas aeruginosa 23587; assay: Antibiotic diffusion assay, levofloxacin plate versus water control plate; assay type: cell-based; details: zone of inhibition in levofloxacin (5 mcg/ml) plate minus water control plate; Mueller Hinton Agar, 35° C. 20 hours
Method: (§1) Testing method for Inhibition of the Efflux Pumps of Pseudomonas aeruzinosa 23587, E. coli 2051, Streptococcus pneumoniae 3514 and Streptococcus pyozenus 26-00
Antibiotic Diffusion Assay
The activity of efflux pump inhibitor was also assessed using an antibiotic diffusion assay. For this assay Pseudomonas aeruginosa 23587 is used. Pseudomonas aeruginosa 23587 is a clinical isolate containing multiple efflux pumps which can be mexAB, mexCD, mexEF but not limited to mex classification only. Pseudomonas aeruginosa are grown in tryptic soya broth for 20 hours at 35° C. Two antibiotic assay plates are prepared in Mueller Hinton Agar using above inoculum. The bacterial count in a plate is 1×10^6 cells/ml. In one of the plates, levofloxacin is incorporated at 5 mcg/ml, while in the control plate an equivalent amount of water is added. […]. The plates are incubated at 35° C. for 20 hours and the zone of inhibition was recorded in mm (table 2). The difference in the diameter of zone of inhibition was calculated by subtracting from the diameter of the zone of inhibition in the levofloxacin containing plate the diameter of the zone of inhibition in the water containing control plate. Example, if the diameter of the zone of inhibition in the levofloxacin plate is X mm and the diameter of the zone of inhibition in the control plate is Y mm, the difference Z=X−Y and is a measure of the activity of the efflux pump inhibitor.

E. coli 2051 = assay: as above; assay type: cell-based, Escherichia coli; details: zone of inhibition in levofloxacin (15 mcg/ml) plate minus water control plate; Mueller Hinton Agar, 35° C. 20 hours
Method: as §1
The activity of an efflux pump inhibitor of E. coli 2051 was also assessed using an antibiotic diffusion assay. For this assay E. coli 2051 is used. E. coli 2051 is a clinical isolate containing multiple efflux pumps. E. coli 2051 are grown in tryptic soya broth for 20 hours at 35° C. Two antibiotic assay plates are prepared in Mueller Hinton Agar using above inoculum. The bacterial count in a plate is 1×10^6 cells/ml. In one of the plates, levofloxacin is incorporated at 15 mcg/ml, while in the control plate an equivalent amount of water is added. […]. The plates are incubated at 35° C. for 20 hours and the zone of inhibition was recorded in mm (table 3) . The difference in the diameter of zone of inhibition was calculated by subtracting from the zone of inhibition in the levofloxacin containing plate the diameter of the zone of inhibition in the control plate.

[2] = tested on: Staphylococcus aureus 1199 B NorA+; assay type: cell-based; details: combination with ciprofloxacin, broth microdilution checkerboard, 35° C. 20 hours; FIC index ≦0.5 synergistic, 0.5–2.0 additive, >2.0 antagonistic
Procedure, shortened: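 Broth microdilution checkerboard with ciprofloxacin against S. aureus 1199B NorA+, pump inhibitor titrated along one axis; inoculum 5×10^5 CFU/ml in Mueller Hinton broth, 35 °C for 20 hours. Growth read by visible turbidity, confirmed by plate reader; FIC index derived from inhibitor MIC in combination versus alone.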

[3] = tested on: Mef Efflux Pump of Streptococcus pneumoniae 3514 and Streptococcus pyogenes 26-00; assay: Two plate diffusion assay for macrolide (Mef) efflux pump inhibitors, azithromycin plate versus control plate; assay type: cell-based; details: zone of inhibition in antibiotic plate (method: azithromycin 0.5 mcg/ml; footnote: levofloxacin) minus water control plate; strain not given

Row | Molecule | Difference in Zone diameter Z1 (mm) [1] | Difference in Zone diameter Z1 (mm) (E. coli 2051) | FIC INDEX [2] | Difference in Zone diameter Z1 (mm) [3]
1 | Cc1c(F)c(Br)cc2c1c(=O)c(C(=O)O)cn2C1CC1 [Example 2 (P. aeruginosa), 7-Bromo-1-cyclopropyl-6-fluoro-5-methyl-1l 4-dihydro-4-oxo-quinoline-3-carboxylic acid] | 1 mm | 9 mm |  | 
2 | COc1c(N2CCC(N)C(C)(C)C2)c(F)cc2c(=O)c(C(=O)O)cn(C3CC3)c12 (centres unmarked) [Example 6 (P. aeruginosa), 1-Cyclopropyl-6-fluoro-8-methoxy-1,4-dihydro-7-(4′-amino-3′-3′-dimethylpiperidin-1-yl)-4-oxo-quinoline-3-carboxylic acid] | 12 mm | 11 mm |  | 
3 | CC(C)C[C@@H](N)C(=O)OC1CCN(c2c(F)cc3c(=O)c(C(=O)O)cn4c3c2CC[C@@H]4C)CC1.Cl [Example 29 (P. aeruginosa), (S)-(−)-9-Fluoro-6,7-dihydro-8-{4′-(D-leucyloxy)piperidin-1-yl}-5-methyl-1-oxo-1H,5H-benzo[i,j]quinolizine-2-carboxylic acid hydrochloride] | 12 mm | 18 mm |  | 
4 | C[C@H]1CCc2c(N3CCC(O)CC3)c(F)cc3c(=O)c(C(=O)[O-])cn1c23.C[N+](C)(C)CCO [Example 22 (P. aeruginosa), S-(−)-9-Fluoro-6,7-dihydro-8-(4′-hydroxypiperidin-1-yl)-5-methyl-1-oxo-1H,5H-benzo[i,j]quinolizine-2-carboxylic acid, choline salt] | 3 mm | 9 mm |  | 
5 | (R)-(+)-9,8-fluoro-8-fluoro-6,7-dihydro-5-methyl-1-oxo-1H,5H-benzo[i,j]quinolizine-2-carboxylate Methoxy phe-lys-OMe [Example 32 (P. aeruginosa)] | 8 mm | 11 mm |  | 
6 | (S)-(−)-Morpholinoethyl-9-fluoro-6,7-dihydro-8-(4′-hydroxypiperidin-1-yl)-5-methyl-1-oxo-1H,5H-benzo[i,j]quinolizine-2-carboxylic acid [Example 58 (NorA)] | 2 mm | 8 mm | 0.370 | 
7 | C[C@H]1CCc2c(N3CCC(O)CC3)c(F)cc3c(=O)c(C(=O)O)cn1c23 [Example 21 (P. aeruginosa), S-(−)-9-Fluoro-6,7-dihydro-8-(4′-hydroxypiperidin-1-yl)-5-methyl-1-oxo-1H,5H-benzo[i,j]quinolizine-2-carboxylic acid 0.2 hydrate] | 5 mm | 9 mm |  | 
8 | COc1c(N2CCC(N)C(C)C2)c(F)cc2c(=O)c(C(=O)O)cn(C3CC3)c12 (centres unmarked) [Example 3 (P. aeruginosa), 1-Cyclopropyl-6-fluoro-8-methoxy-1,4-dihydro-7-(4′-amino-3′-methylpiperidin-1-yl)-4-oxo-quinoline-3-carboxylic acid] | 7 mm | 10 mm |  | 26 mm
9 | C[C@H]1CCc2c(N3CCC(O)CC3)c(F)cc3c(=O)c(C(=O)O)cn1c23.OCCNCCO [Example 24 (P. aeruginosa), S-(−)-9-Fluoro-6,7-dihydro-8-(4′-hydroxypiperidin-1-yl)-5-methyl-1-oxo-1H,5H-benzo[i,j]quinolizine-2-carboxylic acid, diethanolamine salt] | 4 mm | 11 mm |  | 
10 | 10-Fluoro-11-[(1∝,5∝,6∝)-6-amino-3-azabicyclo[3.1.01]hex-3yl]-3,4-dihydro-4(S)-methyl-8-oxo-2H,8H-pyrido[1,2,3-ef]-1,5-benzoxazipin-7-carboxylic acid. HCl [Example 37 (P. aeruginosa)] | 2 mm | 5 mm |  | 
11 | S-(-9-Fluoro-6,7-dihydro-8-(4′-hydroxypiperidin-1-yl)-5-methyl-1-oxo-1H,5H-benzo[i,j]quinolizine-2-carboxylic acid, 1-hydroxyethylpyrrolidine salt [Example 23 (P. aeruginosa)] | 3 mm | 11 mm |  | 
12 | C[C@@H]1CN(c2c(F)cc3c(=O)c(C(=O)O)cn4c3c2CC[C@@H]4C)CC[C@H]1O (relative stereo) [Example 35 (P. aeruginosa), S-(−)-9-Fluoro-6,7-dihydro-8-(trans-4′-hydroxy-3′-methylpiperidin-1-yl]-5-methyl-1H,5H-benzo[i,j]quinolizine-2-carboxylic acid] | 8 mm | 8 mm |  | 
